Reference: PubChem BioAssay (NCI)
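Values below derive from 48-hour exposures of cells grown in 96-well plates, with endpoints linearly interpolated between the two concentrations bracketing the appropriate inhibition level. At the TGI there is no net growth.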

Legend:
Test in all cases: NCI-60 cell line screen, 48 h
MDA-MB-435 = test system: MDA-MB-435
MDA-MB-231 breast = test system: MDA-MB-231 breast
A498 renal = test system: A498 renal
MCF7 breast = test system: MCF7 breast
DU-145 prostate = test system: DU-145 prostate
EKVX NSCLC = test system: EKVX NSCLC
NCI-H226 lung = test system: NCI-H226 lung
PC-3 prostate = test system: PC-3 prostate
SF-539 CNS = test system: SF-539 CNS
SK-OV-3 ovarian = test system: SK-OV-3 ovarian
A549 NSCLC = test system: A549 NSCLC
HT29 colon = test system: HT29 colon
NCI-H460 lung = test system: NCI-H460 lung
OVCAR-8 ovarian = test system: OVCAR-8 ovarian

Row | Structure (SMILES) | TGI (MDA-MB-435) | TGI (MDA-MB-231 breast) | TGI (A498 renal) | TGI (MCF7 breast) | TGI (DU-145 prostate) | TGI (EKVX NSCLC) | TGI (NCI-H226 lung) | TGI (PC-3 prostate) | TGI (SF-539 CNS) | TGI (SK-OV-3 ovarian) | TGI (A549 NSCLC) | TGI (HT29 colon) | TGI (NCI-H460 lung) | TGI (OVCAR-8 ovarian)
1 | C[C@H](O)C1CC(Cn2nnc3c(N)ncnc32)C1(C)C (some centres not stated) | > 100 µM | > 100 µM | > 100 µM | > 100 µM | > 100 µM | > 100 µM | > 100 µM | > 100 µM | > 100 µM | > 100 µM | > 100 µM |  |  | 
2 | N#CC1(C#N)NC(c2ccsc2)C(C#N)(C#N)NC1c1ccsc1 (configuration not stated) | > 100 µM | > 100 µM | > 100 µM | > 100 µM | > 100 µM | > 100 µM | > 100 µM | > 100 µM | > 100 µM | > 100 µM | > 100 µM | > 100 µM | > 100 µM | > 100 µM
3 | O=c1[nH]nc(Cc2ccccc2)n1Nc1ccccc1 | > 100 µM | > 100 µM | > 100 µM | > 100 µM | > 100 µM | > 100 µM | > 100 µM | > 100 µM | > 100 µM |  | > 100 µM | > 100 µM | > 100 µM | > 100 µM
4 | Cc1nc2c(sc3nc4ccccc4n32)c(=O)[nH]1 | > 100 µM | > 100 µM | > 100 µM | > 100 µM | > 100 µM | > 100 µM | > 100 µM | > 100 µM | > 100 µM | > 100 µM | > 100 µM |  |  | > 100 µM
5 | C=CC[C@H]1[C@H](O[Si](C)(C)C(C)(C)C)C=CC(=O)[C@@H]1CC(=O)N(Cc1ccccc1)Cc1ccccc1 | > 100 µM | 41.2 µM | > 100 µM | > 100 µM | > 100 µM | > 100 µM | 46.7 µM | > 100 µM | > 100 µM | > 100 µM | > 100 µM | 29.2 µM | > 100 µM | > 100 µM
6 | CC(=O)Nc1ccc2c3c(cc(O)c2c1)N(C(=O)CCCCC(=O)Nc1ccc2c4c(cc(O)c2c1)N(C(=O)OC(C)(C)C)CC4CCl)CC3CCl (configuration not stated) | 2.95 µM | 26.8 µM | 4.57 µM | 5.16 µM | 4.39 µM | 35.2 µM | 5.55 µM | > 44.8 µM | 7.62 µM | > 85.3 µM | > 55.6 µM | > 37.9 µM | > 33.8 µM | > 38.7 µM
7 | O[C@@H]1C[C@@H]2N[C@@](O)(C[C@@H]2O)[C@H]1O | > 100 µM | > 100 µM | > 100 µM | > 100 µM | > 100 µM | > 100 µM | > 100 µM | > 100 µM | > 100 µM | > 100 µM | > 100 µM | > 100 µM | > 100 µM | > 100 µM
8 | Cc1nnc2n1-c1ccccc1C(=S)N1CSCC21 (configuration not stated) | > 100 µM | > 100 µM | > 100 µM | > 100 µM | > 100 µM | > 100 µM | > 100 µM | > 100 µM |  | > 100 µM | > 100 µM | > 100 µM | > 100 µM | > 100 µM
9 | Cc1cccc2c1NC(=S)[C@@H]1CCCN1C2=O | > 100 µM | > 100 µM | > 100 µM | > 100 µM | > 100 µM | > 100 µM | > 100 µM | > 100 µM | > 100 µM | > 100 µM | > 100 µM | > 100 µM | > 100 µM | > 100 µM
10 | Cc1ccc(Nc2cc(=O)[nH]c(=S)[nH]2)cc1 | > 100 µM | > 100 µM | > 100 µM | > 100 µM | > 100 µM | > 100 µM | > 100 µM | > 100 µM | > 100 µM | > 100 µM | > 100 µM | > 100 µM | > 100 µM | > 100 µM
11 | O=[N+]([O-])c1ccc2nc(/C=C(\O)c3ccc(F)cc3)c(/C=C(\O)c3ccc(F)cc3)nc2c1 | > 100 µM | 69.6 µM | 52.3 µM | > 100 µM | > 100 µM | > 100 µM | 89 µM | > 100 µM | 56.3 µM | 47.5 µM | > 100 µM | > 100 µM | > 100 µM | > 100 µM
12 | COCCOCCOC1=C(Cl)C(=O)c2c(O)ccc(O)c2C1=O | 3.83 µM | 4.12 µM | 13.9 µM | 4.62 µM | 22.4 µM | 21.7 µM | 35.4 µM | 17.5 µM | 3.69 µM | 33.3 µM | 25.5 µM | 8.73 µM | 29.8 µM | 5.99 µM
13 | Cc1c(NC(=S)Nc2ccc(Cl)cc2)c(=O)n(-c2ccccc2)n1C | > 100 µM | > 100 µM | > 100 µM | > 100 µM | > 100 µM | > 100 µM | > 100 µM | > 100 µM | > 100 µM | > 100 µM | > 100 µM | > 100 µM | > 100 µM | 
14 | Brc1ccc2[nH]cc(-c3nc(-c4c[nH]c5ccccc45)cs3)c2c1 | 13.3 µM | 7.68 µM | 8.47 µM | > 100 µM | 10.4 µM | 12.3 µM | 8.13 µM | 9.55 µM | 10.8 µM | 21.4 µM | 15.8 µM | 3.56 µM | 4.9 µM | 20.9 µM
15 | C[Si](C)(OCCS(=O)(=O)O)C1S(=O)(=O)OCCOS1(=O)=O | > 100 µM | > 100 µM | > 100 µM | > 100 µM | > 100 µM | > 100 µM | > 100 µM | > 100 µM | > 100 µM | > 100 µM |  | > 100 µM | > 100 µM | > 100 µM
16 | CN(CCc1ccc(N)cc1)[C@H]1CCCC[C@H]1N1CCCC1 | > 100 µM | > 100 µM | > 100 µM | > 100 µM | > 100 µM | > 100 µM | > 100 µM | > 100 µM |  | > 100 µM | > 100 µM | > 100 µM | > 100 µM | > 100 µM
17 | CNC1=CC(=O)C2=C(C1=O)[C@H]1CC[C@]3(C)C(=O)CC[C@H]3[C@@H]1CC2 | 13.1 µM | > 64.8 µM | 43.4 µM | 47.5 µM | 28.8 µM | 29.9 µM | 25.5 µM | 38.9 µM | 32.3 µM | > 100 µM | 49.9 µM |  | 39.5 µM | 29.5 µM
